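Briefly, cells in 96-well plates were exposed to five compound concentrations for 48 h, and endpoints were estimated by linear interpolation. GI50 is the concentration that inhibits growth by half.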 Active and inactive are the calls of the source. Cut-off read from the data, not from the text of the source: active = GI50 up to about 1.1 µM and inactive = higher. *1 amine or outer side, *2 acyl side, *3 side chain or, on linkers, in order; H or OH if unused. Where a SMILES comes first, the peptide text is derived from it. Bridges are numbered along the chain shown (N, C = ends). Roman numbers before positions name the chains, in order. [ ]: non-standard residue; d: D form. Actinocin(9to1) = Cc1c2oc3c(C)ccc(C(=O)[*:1])c3nc-2c(C(=O)[*:2])c(N)c1=O; Hyp = O=C(O)[CH]1C[CH](O)CN1; NMeV = CN[CH](C(=O)O)C(C)C; Sar = CNCC(=O)O
Assays:
Test in all cases: inhibition of tumour cell growth, NCI panel, 48 h
[1] = test system: MDA-N
[2] = test system: SF-539
[3] = test system: MDA-MB-231
[4] = test system: SK-MEL-2
[5] = test system: LOX IMVI
[6] = test system: HL-60
[7] = test system: MOLT-4
[8] = test system: SK-MEL-28
[9] = test system: 786-0
[10] = test system: NCI-H226
[11] = test system: IGROV-1
[12] = test system: A549
[13] = test system: CAKI-1
[14] = test system: SW-620
[15] = test system: SK-OV-3
[16] = test system: T47D
[17] = test system: SN12C
[18] = test system: UACC-62
[19] = test system: BT-549

Structure (SMILES)	GI50 [1]	GI50 [2]	GI50 [3]	GI50 [4]	GI50 [5]	GI50 [6]	GI50 [7]	GI50 [8]	GI50 [9]	GI50 [10]	GI50 [11]	GI50 [12]	GI50 [13]	GI50 [14]	GI50 [15]	GI50 [16]	GI50 [17]	GI50 [18]	GI50 [19]
Cc1c2oc3c(C)ccc(C(=O)NC4C(=O)NC(C(C)C)C(=O)N5CC(O)CC5C(=O)N(C)CC(=O)N(C)C(C(C)C)C(=O)OC4C)c3nc-2c(C(=O)NC2C(=O)NC(C(C)C)C(=O)N3CC(O)CC3C(=O)N(C)CC(=O)N(C)C(C(C)C)C(=O)OC2C)c(N)c1=O (centres undefined) (I: TV[Hyp][Sar][NMeV] / II: TV[Hyp][Sar][NMeV]; ester I:1-I:C, II:1-II:C; linker I:N-II:N via Actinocin(9to1); configuration not given here)	> 1 µM (active)	> 1 µM (active)	> 1 µM (active)	> 1 µM (active)	> 1 µM (active)	> 1 µM (active)	> 1 µM (active)	> 1 µM (active)	> 1 µM (active)	> 1 µM (active)	> 1 µM (active)	> 1 µM (active)	> 1 µM (active)	> 1 µM (active)	> 1 µM (active)	> 1 µM (active)	> 1 µM (active)	–	–
O=CC12c3ccccc3C(c3ccccc31)C1C(=O)NC(=O)C12 (centres undefined)	–	> 100 µM (inactive)	> 100 µM (inactive)	> 100 µM (inactive)	50.1 µM (inactive)	> 100 µM (inactive)	97.3 µM (inactive)	> 100 µM (inactive)	> 100 µM (inactive)	> 100 µM (inactive)	37.2 µM (inactive)	> 100 µM (inactive)	54.2 µM (inactive)	> 100 µM (inactive)	> 100 µM (inactive)	75.3 µM (inactive)	> 100 µM (inactive)	> 100 µM (inactive)	–
Nc1ccc2nc3n(c2c1)C(=O)c1ccccc1-3	> 100 µM (inactive)	> 100 µM (inactive)	–	> 100 µM (inactive)	–	> 100 µM (inactive)	> 100 µM (inactive)	> 100 µM (inactive)	> 100 µM (inactive)	> 100 µM (inactive)	> 100 µM (inactive)	> 100 µM (inactive)	> 100 µM (inactive)	> 100 µM (inactive)	> 100 µM (inactive)	–	> 100 µM (inactive)	> 100 µM (inactive)	> 100 µM (inactive)
N#C/C(=C/n1c(=S)[nH]c2ccc([N+](=O)[O-])cc21)C(N)=O	> 100 µM (inactive)	> 100 µM (inactive)	> 100 µM (inactive)	> 100 µM (inactive)	> 100 µM (inactive)	9.33 µM (inactive)	> 100 µM (inactive)	> 100 µM (inactive)	> 100 µM (inactive)	> 100 µM (inactive)	> 100 µM (inactive)	> 100 µM (inactive)	> 100 µM (inactive)	> 100 µM (inactive)	> 100 µM (inactive)	–	> 100 µM (inactive)	> 100 µM (inactive)	–
O=C(OC[C@H]1C[C@H]2C(=O)CCC[C@H]2O1)c1ccccc1	> 100 µM (inactive)	> 100 µM (inactive)	> 100 µM (inactive)	> 100 µM (inactive)	> 100 µM (inactive)	> 100 µM (inactive)	> 100 µM (inactive)	> 100 µM (inactive)	> 100 µM (inactive)	> 100 µM (inactive)	> 100 µM (inactive)	> 100 µM (inactive)	> 100 µM (inactive)	> 100 µM (inactive)	> 100 µM (inactive)	> 100 µM (inactive)	> 100 µM (inactive)	> 100 µM (inactive)	–
CC(=O)c1cn(-c2ccc(Cl)cc2)c(=O)c2c(N)n[nH]c12	–	–	> 100 µM (inactive)	> 100 µM (inactive)	43 µM (inactive)	> 100 µM (inactive)	> 100 µM (inactive)	> 100 µM (inactive)	> 100 µM (inactive)	> 100 µM (inactive)	> 100 µM (inactive)	–	> 100 µM (inactive)	> 100 µM (inactive)	> 100 µM (inactive)	> 100 µM (inactive)	–	41.7 µM (inactive)	2.56 µM (inactive)
Cc1nc2ccccc2c(=O)n1NC(=O)c1ccccc1O	> 100 µM (inactive)	> 100 µM (inactive)	> 100 µM (inactive)	–	> 100 µM (inactive)	> 100 µM (inactive)	> 100 µM (inactive)	> 100 µM (inactive)	> 100 µM (inactive)	> 100 µM (inactive)	> 100 µM (inactive)	> 100 µM (inactive)	–	> 100 µM (inactive)	> 100 µM (inactive)	–	> 100 µM (inactive)	> 100 µM (inactive)	> 100 µM (inactive)
Cc1c(C(=O)OCc2ccccc2)[n+]([O-])c2cc(F)c(F)cc2[n+]1[O-]	–	2.52 µM (inactive)	1.8 µM (inactive)	1.67 µM (inactive)	0.421 µM (active)	1.06 µM (active)	1.96 µM (inactive)	2.06 µM (inactive)	4.58 µM (inactive)	2.7 µM (inactive)	1.73 µM (inactive)	3.2 µM (inactive)	2.15 µM (inactive)	0.64 µM (active)	–	1.51 µM (inactive)	1.94 µM (inactive)	2.11 µM (inactive)	1.83 µM (inactive)
COc1ccc(OC)c(/C=N/N=C2\C(=O)Nc3c(Cl)cc(Cl)cc32)c1	20 µM (inactive)	38 µM (inactive)	34 µM (inactive)	21.2 µM (inactive)	47.6 µM (inactive)	43.8 µM (inactive)	23.8 µM (inactive)	> 100 µM (inactive)	33.3 µM (inactive)	82.6 µM (inactive)	34.3 µM (inactive)	> 100 µM (inactive)	71.3 µM (inactive)	43.4 µM (inactive)	72.6 µM (inactive)	–	> 100 µM (inactive)	55.6 µM (inactive)	26.1 µM (inactive)
Cc1ccc(S(=O)(=O)NC(=O)NCCc2ccc(O)c(O)c2)cc1	–	> 100 µM (inactive)	> 100 µM (inactive)	> 100 µM (inactive)	53.6 µM (inactive)	56.5 µM (inactive)	58.2 µM (inactive)	> 100 µM (inactive)	> 100 µM (inactive)	> 100 µM (inactive)	> 100 µM (inactive)	> 100 µM (inactive)	> 100 µM (inactive)	> 100 µM (inactive)	> 100 µM (inactive)	–	–	> 100 µM (inactive)	–
CO[C@@H](C(=O)OC1C=CC2(CC1)C(=O)N(C)c1ccccc12)c1ccccc1 (some centres undefined)	> 100 µM (inactive)	–	> 100 µM (inactive)	> 100 µM (inactive)	> 100 µM (inactive)	20.9 µM (inactive)	40.4 µM (inactive)	> 100 µM (inactive)	> 100 µM (inactive)	–	> 100 µM (inactive)	> 100 µM (inactive)	> 100 µM (inactive)	> 100 µM (inactive)	> 100 µM (inactive)	44.2 µM (inactive)	> 100 µM (inactive)	> 100 µM (inactive)	–
Cc1ccc(S(=O)(=O)NC2C(=O)c3ccccc3C(=O)C2n2ccnc2)cc1 (centres undefined)	15.4 µM (inactive)	> 100 µM (inactive)	16 µM (inactive)	> 100 µM (inactive)	12.2 µM (inactive)	18.6 µM (inactive)	25.7 µM (inactive)	> 100 µM (inactive)	17.4 µM (inactive)	> 100 µM (inactive)	> 100 µM (inactive)	> 100 µM (inactive)	> 100 µM (inactive)	> 100 µM (inactive)	> 100 µM (inactive)	17.5 µM (inactive)	15 µM (inactive)	33.1 µM (inactive)	–
[N-]=[N+]=CC(=O)OC1CCc2ccccc21 (centres undefined)	> 100 µM (inactive)	–	44.1 µM (inactive)	> 100 µM (inactive)	> 100 µM (inactive)	42.3 µM (inactive)	–	> 100 µM (inactive)	61.9 µM (inactive)	> 100 µM (inactive)	> 100 µM (inactive)	–	26 µM (inactive)	> 100 µM (inactive)	> 100 µM (inactive)	–	42.5 µM (inactive)	> 100 µM (inactive)	> 100 µM (inactive)
NC(=O)CCC(NC(=O)c1c2ccccc2nc2ccccc12)C(=O)O (centres undefined)	> 100 µM (inactive)	> 100 µM (inactive)	> 100 µM (inactive)	> 100 µM (inactive)	> 100 µM (inactive)	–	> 100 µM (inactive)	> 100 µM (inactive)	> 100 µM (inactive)	> 100 µM (inactive)	> 100 µM (inactive)	> 100 µM (inactive)	> 100 µM (inactive)	> 100 µM (inactive)	> 100 µM (inactive)	–	> 100 µM (inactive)	> 100 µM (inactive)	> 100 µM (inactive)
O=C(/C=C/c1cccs1)c1ccsc1	18.9 µM (inactive)	–	> 10 µM (inactive)	36.2 µM (inactive)	17.2 µM (inactive)	15.5 µM (inactive)	16.9 µM (inactive)	32.7 µM (inactive)	28.8 µM (inactive)	21.1 µM (inactive)	25.1 µM (inactive)	38 µM (inactive)	56.5 µM (inactive)	29 µM (inactive)	33.4 µM (inactive)	26.3 µM (inactive)	19.8 µM (inactive)	16.5 µM (inactive)	–
O=S(=O)(O)c1cc(O)c(/N=N/c2ccc(O)cc2O)c2ccccc12	> 100 µM (inactive)	–	85.7 µM (inactive)	> 100 µM (inactive)	53.1 µM (inactive)	80.5 µM (inactive)	42.2 µM (inactive)	> 100 µM (inactive)	> 100 µM (inactive)	3.17 µM (inactive)	22.8 µM (inactive)	59.3 µM (inactive)	> 100 µM (inactive)	86.3 µM (inactive)	49.1 µM (inactive)	–	> 100 µM (inactive)	–	–

— ChEMBL document CHEMBL1201862, “PubChem BioAssay data set” (2004)
